Measured values published in patent US9695155B2, “Herbicidal substituted pyrimidinyloxy benzene compounds” (E. I. DU PONT DE NEMOURS AND COMPANY, priority 2013, dated 2017).

Columns and labels:
blackgrass [1] = assay: Test D preemergence; format: in vivo, Alopecurus myosuroides; details: Alopecurus myosuroides, pre-emergence
Excerpt: (§1) Seeds of plant species selected from bluegrass (annual bluegrass, Poa annua), blackgrass (Alopecurus myosuroides), canarygrass (littleseed canarygrass, Phalaris minor), chickweed (common chickweed, Stellaria media), galium (catchweed bedstraw, Galium aparine), bromegrass, downy (downy bromegrass, Bromus tectorum), field poppy (Papaver rhoeas), field violet (Viola arvensis), green foxtail (Setaria viridis), deadnettle (henbit deadnettle, Lamium amplexicaule), Italian ryegrass (Lolium multiflorum), kochia (Kochia scoparia), lambsquarters (Chenopodium album), oilseed rape (Brassica napus), pigweed (Amaranthus retroflexus), chamomile (scentless chamomile, Matricaria inodora), Russian thistle (Salsola kali), speedwell (bird's-eye speedwell, Veronica persica), spring barley (Hordeum vulgare), spring wheat (Triticum aestivum), wild buckwheat (Polygonum convolvulus), wild mustard (Sinapis arvensis), wild oat (Avena fatua), wild radish (Raphanus raphanistrum), windgrass (Apera spica-venti), winter barley (Hordeum vulgare), and winter wheat (Triticum aestivum) were planted into a silt loam soil and treated preemergence with test chemicals formulated in a non-phytotoxic solvent mixture which included a surfactant.
(§2) At the same time, these species were planted in pots containing Redi-Earth® planting medium (Scotts Company, 14111 Scottslawn Road, Marysville, Ohio 43041) comprising spaghnum peat moss, vermiculite, wetting agent and starter nutrients and treated with postemergence applications of the test chemicals formulated in the same manner. Plants ranged in height from 2 to 18 cm (1- to 4-leaf stage). Treated plants and controls were maintained in a controlled growth environment for 7 to 21 days after which time all species were compared to controls and visually evaluated. Plant response ratings, summarized in Table D, are based on a scale of 0 to 100 where 0 is no effect and 100 is complete control. A dash (-) response means no test result.

blackgrass [2] = assay: Test D postemergence; format: in vivo, Alopecurus myosuroides; details: Alopecurus myosuroides, post-emergence, Postemergence, scale 0 to 100 (0 no effect, 100 complete control), read-out: Plant response rating, Blackgrass
Excerpt: as §1, §2

chickweed = assay: Test D postemergence; format: in vivo, Stellaria media; details: Stellaria media, post-emergence
Excerpt: as §1, §2

wild oat = assay: Test D postemergence; format: in vivo, Avena fatua; details: Avena fatua, post-emergence
Method in brief: (§3)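 Visual rating vs untreated controls, 0 = no effect, 100 = complete control, taken 7–21 d after treatment. Pre: silt loam soil. Post: potting medium, plants 2–18 cm, 1–4 leaf. Formulation: non-phytotoxic solvent mix + surfactant.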

lambsquarters = assay: Test D preemergence; format: in vivo, Chenopodium album; details: Chenopodium album, pre-emergence
Excerpt: as §1, §2

oilseed rape = assay: Test D preemergence; format: in vivo, Brassica napus; details: Brassica napus, pre-emergence
Method in brief: as §3

pigweed [3] = assay: Test D preemergence; format: in vivo, Amaranthus retroflexus; details: Amaranthus retroflexus, pre-emergence
Excerpt: as §1, §2

pigweed [4] = assay: Test D postemergence; format: in vivo, Amaranthus retroflexus; details: Amaranthus retroflexus, post-emergence
Excerpt: as §1, §2

speedwell = assay: Test D preemergence; format: in vivo, Veronica persica; details: Veronica persica, pre-emergence, 16 g ai/ha, scale 0 (no effect) to 100 (complete control), read-out: Plant response rating, Speedwell
Excerpt: as §1, §2

Italian ryegrass = assay: Test D preemergence; format: in vivo, Lolium multiflorum; details: Lolium multiflorum, pre-emergence
Method in brief: as §3

wild radish = assay: Test D postemergence; format: in vivo, Raphanus raphanistrum; details: Raphanus raphanistrum, post-emergence
Excerpt: as §1, §2

canarygrass = assay: Test D postemergence; format: in vivo, Phalaris minor; details: Phalaris minor, post-emergence
Excerpt: as §1, §2

**Q.** Which results are given for `FC(F)(F)c1cnn(-c2ccccc2Oc2ncc(Br)cn2)c1` [Compound 18, 5-bromo-2-[2-[4-(trifluoromethyl)-1H-pyrazol-1-yl]phenoxy]pyrimidine]?
**A.** pest or weed control at 16 g/ha (blackgrass [1]; 16 g ai/ha, scale 0 (no effect) to 100 (complete control), read-out: Plant response rating, Blackgrass): 0%; pest or weed control at 31 g/ha (blackgrass [1]; 31 g ai/ha, scale 0-100, read-out: Plant response rating, Blackgrass): 5%; pest or weed control at 62 g/ha (blackgrass [1]; 62 g ai/ha, scale 0-100, read-out: Plant response rating, Blackgrass): 50%; pest or weed control at 125 g/ha (blackgrass [1]; 125 g ai/ha, scale 0-100, read-out: Plant response rating, Blackgrass): 100%; pest or weed control at 250 g/ha (blackgrass [1]; 250 g ai/ha, scale 0-100, read-out: Plant response rating, Blackgrass): 100%; pest or weed control at 62 g/ha (blackgrass [2]; 62 g ai/ha): 15%; pest or weed control at 16 g/ha (blackgrass [2]; 16 g ai/ha): 10%; pest or weed control at 31 g/ha (blackgrass [2]; 31 g ai/ha): 15%; pest or weed control at 125 g/ha (blackgrass [2]; 125 g ai/ha): 20%; pest or weed control at 250 g/ha (blackgrass [2]; 250 g ai/ha): 35%; pest or weed control at 16 g/ha (chickweed; 16 g ai/ha, scale 0-100, read-out: Plant response rating, Chickweed): 15%; pest or weed control at 31 g/ha (chickweed; 31 g ai/ha, scale 0 to 100 (0 no effect, 100 complete control), read-out: Plant response rating, Chickweed): 40%; pest or weed control at 62 g/ha (chickweed; 62 g ai/ha, scale 0 to 100 (0 no effect, 100 complete control), read-out: Plant response rating, Chickweed): 45%; pest or weed control at 125 g/ha (chickweed; 125 g ai/ha, scale 0 to 100 (0 no effect, 100 complete control), read-out: Plant response rating, Chickweed): 60%; pest or weed control at 250 g/ha (chickweed; 250 g ai/ha, scale 0 to 100 (0 no effect, 100 complete control), read-out: Plant response rating, Chickweed): 95%; pest or weed control at 16 g/ha (wild oat; 16 g ai/ha, scale 0-100, read-out: Plant response rating, Oat, Wild): 10%; pest or weed control at 31 g/ha (wild oat; 31 g ai/ha, scale 0 to 100 (0 no effect, 100 complete control), read-out: Plant response rating, Oat, Wild): 10%; pest or weed control at 62 g/ha (wild oat; 62 g ai/ha, scale 0 to 100 (0 no effect, 100 complete control), read-out: Plant response rating, Oat, Wild): 15%; pest or weed control at 125 g/ha (wild oat; 125 g ai/ha, scale 0 to 100 (0 no effect, 100 complete control), read-out: Plant response rating, Oat, Wild): 20%; pest or weed control at 250 g/ha (wild oat; 250 g ai/ha, scale 0 to 100 (0 no effect, 100 complete control), read-out: Plant response rating, Oat, Wild): 25%; pest or weed control at 16 g/ha (lambsquarters; 16 g ai/ha, scale 0 (no effect) to 100 (complete control), read-out: Plant response rating, Lambsquarters): 70%; pest or weed control at 31 g/ha (lambsquarters; 31 g ai/ha, scale 0-100, read-out: Plant response rating, Lambsquarters): 80%; pest or weed control at 62 g/ha (lambsquarters; 62 g ai/ha, scale 0-100, read-out: Plant response rating, Lambsquarters): 100%; pest or weed control at 125 g/ha (lambsquarters; 125 g ai/ha, scale 0-100, read-out: Plant response rating, Lambsquarters): 100%; pest or weed control at 250 g/ha (lambsquarters; 250 g ai/ha, scale 0-100, read-out: Plant response rating, Lambsquarters): 100%; plant injury at 16 g/ha (oilseed rape; 16 g ai/ha, scale 0 (no effect) to 100 (complete control), read-out: Plant response rating, Oilseed Rape): 40%; plant injury at 31 g/ha (oilseed rape; 31 g ai/ha, scale 0-100, read-out: Plant response rating, Oilseed Rape): 30%; plant injury at 62 g/ha (oilseed rape; 62 g ai/ha, scale 0-100, read-out: Plant response rating, Oilseed Rape): 100%; plant injury at 125 g/ha (oilseed rape; 125 g ai/ha, scale 0-100, read-out: Plant response rating, Oilseed Rape): 100%; plant injury at 250 g/ha (oilseed rape; 250 g ai/ha, scale 0-100, read-out: Plant response rating, Oilseed Rape): 100%; pest or weed control at 16 g/ha (pigweed [3]; 16 g ai/ha, scale 0 (no effect) to 100 (complete control), read-out: Plant response rating, Pigweed): 30%; pest or weed control at 31 g/ha (pigweed [3]; 31 g ai/ha, scale 0 (no effect) to 100 (complete control), read-out: Plant response rating, Pigweed): 100%; pest or weed control at 62 g/ha (pigweed [3]; 62 g ai/ha, scale 0-100, read-out: Plant response rating, Pigweed): 100%; pest or weed control at 125 g/ha (pigweed [3]; 125 g ai/ha, scale 0-100, read-out: Plant response rating, Pigweed): 100%; pest or weed control at 250 g/ha (pigweed [3]; 250 g ai/ha, scale 0-100, read-out: Plant response rating, Pigweed): 100%; pest or weed control at 16 g/ha (pigweed [4]; 16 g ai/ha, scale 0-100, read-out: Plant response rating, Pigweed): 65%; pest or weed control at 31 g/ha (pigweed [4]; 31 g ai/ha, scale 0 to 100 (0 no effect, 100 complete control), read-out: Plant response rating, Pigweed): 75%; pest or weed control at 62 g/ha (pigweed [4]; 62 g ai/ha, scale 0 to 100 (0 no effect, 100 complete control), read-out: Plant response rating, Pigweed): 75%; pest or weed control at 125 g/ha (pigweed [4]; 125 g ai/ha, scale 0 to 100 (0 no effect, 100 complete control), read-out: Plant response rating, Pigweed): 95%; pest or weed control at 250 g/ha (pigweed [4]; 250 g ai/ha, scale 0 to 100 (0 no effect, 100 complete control), read-out: Plant response rating, Pigweed): 95%; pest or weed control at 16 g/ha (speedwell): 50%; pest or weed control at 16 g/ha (Italian ryegrass; 16 g ai/ha, scale 0 (no effect) to 100 (complete control), read-out: Plant response rating, Ryegrass, Italian): 10%; pest or weed control at 31 g/ha (Italian ryegrass; 31 g ai/ha, scale 0 (no effect) to 100 (complete control), read-out: Plant response rating, Ryegrass, Italian): 10%; pest or weed control at 62 g/ha (Italian ryegrass; 62 g ai/ha, scale 0-100, read-out: Plant response rating, Ryegrass, Italian): 20%; pest or weed control at 125 g/ha (Italian ryegrass; 125 g ai/ha, scale 0-100, read-out: Plant response rating, Ryegrass, Italian): 25%; pest or weed control at 250 g/ha (Italian ryegrass; 250 g ai/ha, scale 0-100, read-out: Plant response rating, Ryegrass, Italian): 50%; pest or weed control at 16 g/ha (wild radish; 16 g ai/ha, scale 0-100, read-out: Plant response rating, Radish, Wild): 95%; pest or weed control at 31 g/ha (wild radish; 31 g ai/ha, scale 0 to 100 (0 no effect, 100 complete control), read-out: Plant response rating, Radish, Wild): 90%; pest or weed control at 62 g/ha (wild radish; 62 g ai/ha, scale 0 to 100 (0 no effect, 100 complete control), read-out: Plant response rating, Radish, Wild): 100%; pest or weed control at 125 g/ha (wild radish; 125 g ai/ha, scale 0 to 100 (0 no effect, 100 complete control), read-out: Plant response rating, Radish, Wild): 100%; pest or weed control at 250 g/ha (wild radish; 250 g ai/ha, scale 0 to 100 (0 no effect, 100 complete control), read-out: Plant response rating, Radish, Wild): 100%; pest or weed control at 16 g/ha (canarygrass; 16 g ai/ha, scale 0-100, read-out: Plant response rating, Canarygrass): 10%; pest or weed control at 31 g/ha (canarygrass; 31 g ai/ha, scale 0 to 100 (0 no effect, 100 complete control), read-out: Plant response rating, Canarygrass): 15%; pest or weed control at 62 g/ha (canarygrass; 62 g ai/ha, scale 0 to 100 (0 no effect, 100 complete control), read-out: Plant response rating, Canarygrass): 15%; pest or weed control at 125 g/ha (canarygrass; 125 g ai/ha, scale 0 to 100 (0 no effect, 100 complete control), read-out: Plant response rating, Canarygrass): 20%; pest or weed control at 250 g/ha (canarygrass; 250 g ai/ha, scale 0 to 100 (0 no effect, 100 complete control), read-out: Plant response rating, Canarygrass): 35%
